Experiments:
Format in all cases: in vivo
Diabrotica balteata = Diabrotica balteata (Corn Root Worm); settings: 96 h, application rate of 200 ppm, sprayed maize sprouts, L2 larvae, 4 days after infestation, read-out: effect in at least one of the two categories (mortality or growth inhibition)
Method: Maize sprouts placed onto an agar layer in 24-well microtiter plates were treated with aqueous test solutions prepared from 10,000 ppm DMSO stock solutions by spraying. After drying, the plates were infested with L2 larvae (6 to 10 per well). The samples were assessed for mortality and growth inhibition in comparison to untreated samples 4 days after infestation.

Euschistus heros = Euschistus heros (Neotropical Brown Stink Bug); settings: 120 h, application rate of 200 ppm, sprayed soybean leaves, N2 nymphs, 5 days after infestation, read-out: effect in at least one of the two categories (mortality or growth inhibition)
Method: Soybean leaves on agar in 24-well microtiter plates were sprayed with aqueous test solutions prepared from 10,000 ppm DMSO stock solutions. After drying the leaves were infested with N2 nymphs. The samples were assessed for mortality and growth inhibition in comparison to untreated samples 5 days after infestation.

Myzus persicae [1] = experiment: Myzus persicae (Green Peach Aphid): Feeding/Contact Activity; settings: foliar, 144 h, application rate of 200 ppm, sprayed sunflower leaf discs, aphid population of mixed ages, 6 days after infestation
Method: Sunflower leaf discs were placed onto agar in a 24-well microtiter plate and sprayed with aqueous test solutions prepared from 10,000 ppm DMSO stock solutions. After drying, the leaf discs were infested with an aphid population of mixed ages. The samples were assessed for mortality 6 days after infestation.

Plutella xylostella = Plutella xylostella (Diamond Back Moth); settings: 120 h, application rate of 200 ppm, artificial diet, L2 larvae, 5 days after infestation, read-out: effect in at least one of the two categories (mortality or growth inhibition)
Method: 24-well microtiter plates with artificial diet were treated with aqueous test solutions prepared from 10,000 ppm DMSO stock solutions by pipetting. After drying, the plates were infested with L2 larvae (10 to 15 per well). The samples were assessed for mortality and growth inhibition in comparison to untreated samples 5 days after infestation.

Spodoptera littoralis [2] = experiment: Spodoptera littoralis (Egyptian Cotton Leaf Worm), sprayed cotton leaf discs; settings: foliar, 72 h, application rate of 200 ppm, L1 larvae, 3 days after infestation
Method: Cotton leaf discs were placed onto agar in 24-well microtiter plates and sprayed with aqueous test solutions prepared from 10,000 ppm DMSO stock solutions. After drying the leaf discs were infested with five L1 larvae. The samples were assessed for mortality, anti-feeding effect, and growth inhibition in comparison to untreated samples 3 days after infestation. Control of Spodoptera littoralis by a test sample is given when at least one of the categories mortality, anti-feedant effect, and growth inhibition is higher than the untreated sample.

Spodoptera littoralis [3] = experiment: Spodoptera littoralis (Egyptian Cotton Leaf Worm), uptake by lettuce roots from agar; settings: 144 h, test rate of 12.5 ppm, mixed with agar, absorbed by lettuce roots, Spodoptera eggs, 6 days after infestation, read-out: effect in at least one of the three categories (mortality, anti-feeding, or growth inhibition)
Excerpt: Test compounds were applied by pipette from 10,000 ppm DMSO stock solutions into 24-well plates and mixed with agar. Lettuce seeds were placed onto the agar and the multi well plate was closed by another plate which contained also agar. After 7 days the compound was absorbed by the roots and the lettuce grew into the lid plate. The lettuce leaves were then cut off into the lid plate. Spodoptera eggs were pipetted through a plastic stencil onto a humid gel blotting paper and the lid plate was closed with it. The samples were assessed for mortality, anti-feedant effect and growth inhibition in comparison to untreated samples 6 days after infestation.

Bemisia tabaci = Bemisia tabaci (Cotton White Fly): Feeding/Contact Activity; settings: foliar, 144 h, application rate of 200 ppm, sprayed cotton leaf discs, adult white flies, 6 days after incubation
Method: Cotton leaf discs were placed on agar in 24-well microtiter plates and sprayed with aqueous test solutions prepared from 10,000 ppm DMSO stock solutions. After drying the leaf discs were infested with adult white flies. The samples were checked for mortality 6 days after incubation.

Myzus persicae [4] = experiment: Myzus persicae (Green Peach Aphid). Systemic Activity; settings: 144 h, test rate of 24 ppm, roots of infested pea seedlings in test solution, 6 days
Method: Roots of pea seedlings infested with an aphid population of mixed ages were placed directly into aqueous test solutions prepared from 10,000 DMSO stock solutions. The samples were assessed for mortality 6 days after placing seedlings into test solutions.

CCn1c(C(F)(F)F)cc2nc(-c3nc(NC(=O)C4CC4)c(Cl)cc3S(=O)(=O)CC)n(C)c2c1=O [Compound A41, N-[3-chloro-6-[5-ethyl-3-methyl-4-oxo-6-(trifluoromethyl)imidazo[4,5-c]pyridin-2-yl]-5-ethylsulfonyl-2-pyridyl]cyclopropanecarboxamide]
≥ 80%: effect mortality or growth inhibition at 200 ppm (Diabrotica balteata) | percent effect (mortality or growth inhibition) at 200 ppm (Euschistus heros) | mortality at 200 ppm (Myzus persicae [1]) | percent effect (mortality or growth inhibition) at 200 ppm (Plutella xylostella) | percent control (mortality, anti-feeding effect or growth inhibition) at 200 ppm (Spodoptera littoralis [2]) | percent effect (mortality, anti-feeding or growth inhibition) at 12.5 ppm (Spodoptera littoralis [3])

CCS(=O)(=O)c1ccc(NC)nc1-c1nc2cc(C(F)(F)F)n(C3CC3)c(=O)c2n1C [Compound A51, 5-cyclopropyl-2-[3-ethylsulfonyl-6-(methylamino)-2-pyridyl]-3-methyl-6-(trifluoromethyl)imidazo[4,5-c]pyridin-4-one]
≥ 80%: mortality at 200 ppm (Bemisia tabaci) | effect mortality or growth inhibition at 200 ppm (Diabrotica balteata) | percent effect (mortality or growth inhibition) at 200 ppm (Euschistus heros) | mortality at 200 ppm (Myzus persicae [1]) | mortality at 24 ppm (Myzus persicae [4]) | percent effect (mortality or growth inhibition) at 200 ppm (Plutella xylostella) | percent control (mortality, anti-feeding effect or growth inhibition) at 200 ppm (Spodoptera littoralis [2]) | percent effect (mortality, anti-feeding or growth inhibition) at 12.5 ppm (Spodoptera littoralis [3])

CCn1c(C(F)(F)F)cc2nc(-c3nc(NC4CC4)c(Cl)cc3S(=O)(=O)CC)n(C)c2c1=O [Compound A31, 2-[5-chloro-6-(cyclopropylamino)-3-ethylsulfonyl-2-pyridyl]-5-ethyl-3-methyl-6-(trifluoromethyl)imidazo[4,5-c]pyridin-4-one]
≥ 80%: mortality at 200 ppm (Bemisia tabaci) | effect mortality or growth inhibition at 200 ppm (Diabrotica balteata) | percent effect (mortality or growth inhibition) at 200 ppm (Euschistus heros) | percent effect (mortality or growth inhibition) at 200 ppm (Plutella xylostella) | percent control (mortality, anti-feeding effect or growth inhibition) at 200 ppm (Spodoptera littoralis [2]) | percent effect (mortality, anti-feeding or growth inhibition) at 12.5 ppm (Spodoptera littoralis [3])

CCn1c(C(F)(F)F)cc2nc(-c3nc(N(C(=O)C4CC4)C(=O)C4CC4)c(Cl)cc3S(=O)(=O)CC)n(C)c2c1=O [Compound A40, N-[3-chloro-6-[5-ethyl-3-methyl-4-oxo-6-(trifluoromethyl)imidazo[4,5-c]pyridin-2-yl]-5-ethylsulfonyl-2-pyridyl]-N-(cyclopropanecarbonyl)cyclopropanecarboxamide]
≥ 80%: mortality at 200 ppm (Bemisia tabaci) | effect mortality or growth inhibition at 200 ppm (Diabrotica balteata) | percent effect (mortality or growth inhibition) at 200 ppm (Euschistus heros) | mortality at 200 ppm (Myzus persicae [1]) | percent effect (mortality or growth inhibition) at 200 ppm (Plutella xylostella) | percent control (mortality, anti-feeding effect or growth inhibition) at 200 ppm (Spodoptera littoralis [2]) | percent effect (mortality, anti-feeding or growth inhibition) at 12.5 ppm (Spodoptera littoralis [3])

CCn1c(C(F)(F)F)cc2nc(-c3ncc(N/C=N/OC)cc3S(=O)(=O)CC)n(C)c2c1=O [Compound A26, N-[6-[5-ethyl-3-methyl-4-oxo-6-(trifluoromethyl)imidazo[4,5-c]pyridin-2-yl]-5-ethylsulfonyl-3-pyridyl]-N′-methoxy-formamidine]
≥ 80%: effect mortality or growth inhibition at 200 ppm (Diabrotica balteata) | percent effect (mortality or growth inhibition) at 200 ppm (Euschistus heros) | percent effect (mortality or growth inhibition) at 200 ppm (Plutella xylostella) | percent control (mortality, anti-feeding effect or growth inhibition) at 200 ppm (Spodoptera littoralis [2]) | percent effect (mortality, anti-feeding or growth inhibition) at 12.5 ppm (Spodoptera littoralis [3])

CCn1c(C(F)(F)F)cc2nc(-c3ncc(N(C)C(=O)C4CC4)cc3S(=O)(=O)CC)n(C)c2c1=O [Compound A9, N-[6-[5-ethyl-3-methyl-4-oxo-6-(trifluoromethyl)imidazo[4,5-c]pyridin-2-yl]-5-ethylsulfonyl-3-pyridyl]-N-methyl-cyclopropanecarboxamide]
≥ 80%: mortality at 200 ppm (Bemisia tabaci) | percent effect (mortality or growth inhibition) at 200 ppm (Euschistus heros) | mortality at 200 ppm (Myzus persicae [1]) | mortality at 24 ppm (Myzus persicae [4]) | percent effect (mortality or growth inhibition) at 200 ppm (Plutella xylostella) | percent control (mortality, anti-feeding effect or growth inhibition) at 200 ppm (Spodoptera littoralis [2]) | percent effect (mortality, anti-feeding or growth inhibition) at 12.5 ppm (Spodoptera littoralis [3])

CCn1c(C(F)(F)F)cc2nc(-c3ncc(NC(=O)C4CC4)cc3S(=O)(=O)CC)n(C)c2c1=O [Compound A7, N-[6-[5-ethyl-3-methyl-4-oxo-6-(trifluoromethyl)imidazo[4,5-c]pyridin-2-yl]-5-ethylsulfonyl-3-pyridyl]cyclopropanecarboxamide]
≥ 80%: mortality at 200 ppm (Bemisia tabaci) | percent effect (mortality or growth inhibition) at 200 ppm (Euschistus heros) | mortality at 200 ppm (Myzus persicae [1]) | mortality at 24 ppm (Myzus persicae [4]) | percent effect (mortality or growth inhibition) at 200 ppm (Plutella xylostella) | percent control (mortality, anti-feeding effect or growth inhibition) at 200 ppm (Spodoptera littoralis [2])

CCS(=O)(=O)c1ccc(NO)nc1-c1nc2cc(C(F)(F)F)n(C3CC3)c(=O)c2n1C [Compound A47, 5-cyclopropyl-2-[3-ethylsulfonyl-6-(hydroxyamino)-2-pyridyl]-3-methyl-6-(trifluoromethyl)imidazo[4,5-c]pyridin-4-one]
≥ 80%: mortality at 200 ppm (Bemisia tabaci) | effect mortality or growth inhibition at 200 ppm (Diabrotica balteata) | percent effect (mortality or growth inhibition) at 200 ppm (Euschistus heros) | mortality at 200 ppm (Myzus persicae [1]) | mortality at 24 ppm (Myzus persicae [4]) | percent effect (mortality or growth inhibition) at 200 ppm (Plutella xylostella) | percent control (mortality, anti-feeding effect or growth inhibition) at 200 ppm (Spodoptera littoralis [2])

CCS(=O)(=O)c1ccc(NN)nc1-c1nc2cc(C(F)(F)F)n(C3CC3)c(=O)c2n1C [Compound A45, 5-cyclopropyl-2-(3-ethylsulfonyl-6-hydrazino-2-pyridyl)-3-methyl-6-(trifluoromethyl)imidazo[4,5-c]pyridin-4-one]
≥ 80%: effect mortality or growth inhibition at 200 ppm (Diabrotica balteata) | mortality at 200 ppm (Myzus persicae [1]) | mortality at 24 ppm (Myzus persicae [4]) | percent effect (mortality or growth inhibition) at 200 ppm (Plutella xylostella) | percent control (mortality, anti-feeding effect or growth inhibition) at 200 ppm (Spodoptera littoralis [2]) | percent effect (mortality, anti-feeding or growth inhibition) at 12.5 ppm (Spodoptera littoralis [3])

CCn1c(C(F)(F)F)cc2nc(-c3nc(C(=O)NC4CC4)ccc3S(=O)(=O)CC)n(C)c2c1=O [Compound A20, N-cyclopropyl-6-[5-ethyl-3-methyl-4-oxo-6-(trifluoromethyl)imidazo[4,5-c]pyridin-2-yl]-5-ethylsulfonyl-pyridine-2-carboxamide]
≥ 80%: mortality at 200 ppm (Bemisia tabaci) | percent effect (mortality or growth inhibition) at 200 ppm (Euschistus heros) | mortality at 200 ppm (Myzus persicae [1]) | mortality at 24 ppm (Myzus persicae [4]) | percent effect (mortality or growth inhibition) at 200 ppm (Plutella xylostella) | percent control (mortality, anti-feeding effect or growth inhibition) at 200 ppm (Spodoptera littoralis [2]) | percent effect (mortality, anti-feeding or growth inhibition) at 12.5 ppm (Spodoptera littoralis [3])

CCn1c(C(F)(F)F)cc2nc(-c3nc(Cl)c(N)cc3S(=O)(=O)CC)n(C)c2c1=O [Compound A53, 2-(5-amino-6-chloro-3-ethylsulfonyl-2-pyridyl)-5-ethyl-3-methyl-6-(trifluoromethyl)imidazo[4,5-c]pyridin-4-one]
≥ 80%: effect mortality or growth inhibition at 200 ppm (Diabrotica balteata) | mortality at 200 ppm (Myzus persicae [1]) | percent effect (mortality or growth inhibition) at 200 ppm (Plutella xylostella) | percent control (mortality, anti-feeding effect or growth inhibition) at 200 ppm (Spodoptera littoralis [2]) | percent effect (mortality, anti-feeding or growth inhibition) at 12.5 ppm (Spodoptera littoralis [3])

CCn1c(C(F)(F)F)cc2nc(-c3ncc(N(C)N)cc3S(=O)(=O)CC)n(C)c2c1=O [Compound A56, 2-[5-[amino(methyl)amino]-3-ethylsulfonyl-2-pyridyl]-5-ethyl-3-methyl-6-(trifluoromethyl)imidazo[4,5-c]pyridin-4-one]
≥ 80%: effect mortality or growth inhibition at 200 ppm (Diabrotica balteata) | percent effect (mortality or growth inhibition) at 200 ppm (Euschistus heros) | mortality at 200 ppm (Myzus persicae [1]) | percent effect (mortality or growth inhibition) at 200 ppm (Plutella xylostella) | percent control (mortality, anti-feeding effect or growth inhibition) at 200 ppm (Spodoptera littoralis [2]) | percent effect (mortality, anti-feeding or growth inhibition) at 12.5 ppm (Spodoptera littoralis [3])
